Assay results: ChEMBL document CHEMBL1152360, “Structure-activity relationships of memoquin: Influence of the chain chirality in the multi-target mechanism of action” (Bioorg Med Chem Lett, 2009)

Columns and labels:
[1] = biological target: Cholinesterases; ACHE & BCHE (Homo sapiens) (UniProt P06276+P22303); assay: Selectivity ratio of IC50 for human recombinant BchE to IC50 for human recombinant AChE
[2] = biological target: Amyloid-beta precursor protein (Homo sapiens) (UniProt P05067); assay: Inhibition of self-assembly of human amyloid beta (1-42) aggregation at 10 uM by thioflavin T-based fluorometric assay
Acetylcholinesterase [3] = biological target: T1, Acetylcholinesterase (Homo sapiens, UniProt P22303); assay: Inhibition of human recombinant AChE preincubated 20 mins before substrate addition by Ellman method
Cholinesterase = Cholinesterase (Homo sapiens, UniProt P06276); assay: Inhibition of human recombinant BchE preincubated 20 mins before substrate addition by Ellman method
Acetylcholinesterase [4] = biological target: T1, Acetylcholinesterase; assay: Inhibition of human AChE-induced amyloid beta (1-40) aggregation by thioflavin T fluorescence-based assay

Chain of Amyloid-beta precursor protein (Homo sapiens) (P05067 whole entry): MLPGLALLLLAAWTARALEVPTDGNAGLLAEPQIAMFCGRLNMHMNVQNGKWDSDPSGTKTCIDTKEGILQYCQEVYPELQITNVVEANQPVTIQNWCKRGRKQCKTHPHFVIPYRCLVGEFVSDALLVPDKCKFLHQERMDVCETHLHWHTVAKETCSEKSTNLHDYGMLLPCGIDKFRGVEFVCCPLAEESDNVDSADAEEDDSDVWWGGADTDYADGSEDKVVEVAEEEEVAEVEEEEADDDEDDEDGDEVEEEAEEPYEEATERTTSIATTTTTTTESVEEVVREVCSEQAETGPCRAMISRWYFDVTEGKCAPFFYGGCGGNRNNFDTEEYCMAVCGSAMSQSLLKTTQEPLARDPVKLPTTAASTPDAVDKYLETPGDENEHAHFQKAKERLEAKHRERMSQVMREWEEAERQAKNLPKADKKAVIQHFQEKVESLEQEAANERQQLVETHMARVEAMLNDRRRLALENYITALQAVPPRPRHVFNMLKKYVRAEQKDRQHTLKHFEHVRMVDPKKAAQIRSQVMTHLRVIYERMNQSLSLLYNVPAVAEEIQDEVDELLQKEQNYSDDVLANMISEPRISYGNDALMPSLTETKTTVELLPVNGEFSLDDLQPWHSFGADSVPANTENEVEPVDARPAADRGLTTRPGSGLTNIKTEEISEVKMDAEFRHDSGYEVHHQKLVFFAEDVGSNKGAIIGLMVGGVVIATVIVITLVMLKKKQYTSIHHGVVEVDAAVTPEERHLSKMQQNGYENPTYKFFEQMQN
T1 sequence (P22303 whole entry): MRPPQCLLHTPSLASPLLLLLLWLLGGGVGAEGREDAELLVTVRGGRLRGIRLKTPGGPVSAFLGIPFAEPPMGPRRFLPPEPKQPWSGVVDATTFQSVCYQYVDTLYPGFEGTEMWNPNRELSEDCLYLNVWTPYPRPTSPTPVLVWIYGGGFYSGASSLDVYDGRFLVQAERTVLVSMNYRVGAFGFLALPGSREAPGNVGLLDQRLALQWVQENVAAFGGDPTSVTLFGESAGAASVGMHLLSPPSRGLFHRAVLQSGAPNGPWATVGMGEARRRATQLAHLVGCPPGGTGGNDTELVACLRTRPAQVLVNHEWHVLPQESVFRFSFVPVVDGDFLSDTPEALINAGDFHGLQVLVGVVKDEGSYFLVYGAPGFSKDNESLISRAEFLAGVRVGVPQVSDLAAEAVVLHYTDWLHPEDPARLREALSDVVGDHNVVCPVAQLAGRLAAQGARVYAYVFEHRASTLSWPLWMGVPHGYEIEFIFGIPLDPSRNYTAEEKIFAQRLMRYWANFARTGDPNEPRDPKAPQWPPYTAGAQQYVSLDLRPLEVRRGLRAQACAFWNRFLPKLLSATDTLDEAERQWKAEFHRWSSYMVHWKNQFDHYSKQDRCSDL
Chain of Cholinesterases; ACHE & BCHE (Homo sapiens) (P06276 whole entry, looked up): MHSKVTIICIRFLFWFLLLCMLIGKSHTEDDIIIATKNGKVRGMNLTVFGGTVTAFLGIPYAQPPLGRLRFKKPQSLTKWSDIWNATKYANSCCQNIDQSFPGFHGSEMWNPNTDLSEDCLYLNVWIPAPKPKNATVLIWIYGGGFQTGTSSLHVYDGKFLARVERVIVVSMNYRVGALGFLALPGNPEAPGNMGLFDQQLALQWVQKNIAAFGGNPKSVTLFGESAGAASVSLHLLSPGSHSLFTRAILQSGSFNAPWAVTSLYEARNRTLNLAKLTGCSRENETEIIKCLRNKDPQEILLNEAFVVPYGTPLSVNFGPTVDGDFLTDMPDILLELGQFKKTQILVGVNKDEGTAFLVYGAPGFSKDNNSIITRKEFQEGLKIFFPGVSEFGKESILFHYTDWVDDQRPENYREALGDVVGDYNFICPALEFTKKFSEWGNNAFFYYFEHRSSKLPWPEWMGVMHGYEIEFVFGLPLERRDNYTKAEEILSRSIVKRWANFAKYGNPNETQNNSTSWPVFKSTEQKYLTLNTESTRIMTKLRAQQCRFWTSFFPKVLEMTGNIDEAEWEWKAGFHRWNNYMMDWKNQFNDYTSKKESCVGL
Chain of Cholinesterases; ACHE & BCHE (Homo sapiens) (P22303 whole entry, looked up): as the sequence (P22303 whole entry) above
Chain of Cholinesterase (P06276 whole entry): as the sequence (P06276 whole entry, looked up) above

Structure (SMILES)	Ratio IC50 [1]	inhibition [2] [%]	IC50 (Acetylcholinesterase [3]) [nM]	IC50 (Cholinesterase) [nM]	IC50 (Acetylcholinesterase [4]) [nM]
CCN(CCCCCCNC1=CC(=O)C(NCCCCCCN(CC)[C@@H](C)c2ccccc2OC)=CC1=O)[C@@H](C)c1ccccc1OC	238	62.3	4.03	958	7910
CCN(CCCCCCNC1=CC(=O)C(NCCCCCCN(CC)[C@@H](C)c2ccccc2OC)=CC1=O)[C@H](C)c1ccccc1OC	2730	63.5	0.36	982	11000
CCN(CCCCCCNC1=CC(=O)C(NCCCCCCN(CC)[C@H](C)c2ccccc2OC)=CC1=O)[C@H](C)c1ccccc1OC	2960	63.9	0.5	1480	9340
CCN(CCCCCCNC1=CC(=O)C(NCCCCCCN(CC)Cc2ccccc2OC)=CC1=O)Cc1ccccc1OC	929				
